{"source": "patent US20250345512A1", "about": "“COMBINATION SODIUM-GLUCOSE COTRANSPORTER INHIBITOR (SGLTI) INSULIN THERAPY FOR GLYCEMIC CONTROL IN TYPE 1 DIABETES” (University of Virginia Patent Foundation, priority 2022, published 2025)", "tested_on": "participants with T1D", "experiment": "Randomized crossover clinical trial (NCT04201496): CGM glycemic outcomes with 5 mg daily empagliflozin adjunctive to AID (Control-IQ, CIQ) or PLGS (Basal-IQ, BIQ)", "type": "in vivo, human", "conditions": "for % CGM time <50 mg/dL (<2.8 mmol/L) / % CGM time <60 mg/dL (<3.3 mmol/L) / % CGM time <70 mg/dL (<3.9 mmol/L) / % CGM time >180 mg/dL (>10.0 mmol/L) / % CGM time >250 mg/dL (>13.9 mmol/L) / % CGM time >300 mg/dL (>16.7 mmol/L) / CGM HBGI / CGM LBGI: median (IQR)", "procedure": "FIG. 2 presents a study analysis relative to baseline, control IQ (CIQ) (e.g., AID), and basal IQ (BIQ) (e.g., PLGS) implementation, according to investigation that is demonstrable of one or more embodiments herein. Therein, an experimental arm (G1, G2) providing an initial daily dose of 5 mg empagliflozin (EMPA) is depicted against a control arm (G3, G4) without such dosing (NOEMPA). Relative characteristics of the analysis are provided below.\nStudy Design: A single-center, randomized, controlled, unblinded, crossover clinical trial (NCT04201496) compared four parallel groups, two groups in the experimental arm (EMPA) with 5 mg daily empagliflozin as adjunctive therapy to PLGS or AID, and two groups in the control arm (NOEMPA) with no drug and with a PLGS system (Basal-IQ, Tandem Diabetes Care) or AID system (Control-IQ, Tandem Diabetes Care). The groups within each arm differed from one another in the order of the randomly assigned crossover technological intervention, relative to PLGS being followed by AID or AID being followed by PLGS, respectively (FIG. 4). The study protocol was approved by the University of Virginia Institutional Review Board (IRB). An investigational device exemption (IDE), including an investigational new drug (IND) application for empagliflozin, was approved by the FDA. Safety aspects were overseen by an external data and safety monitoring board (DSMB). Participants: Major inclusion criteria were T1D treated with insulin for at least one year, use of continuous subcutaneous insulin infusion therapy for at least six months, age 18-65 yrs., no use of glucose lowering agents other than insulin, and Hb1Ac<9% (75 mmol/mol). Randomization: A (1:1:1:1) randomization assigned participants to either Group 1, AID-EMPA (4 weeks) followed by PLGS-EMPA (2 weeks), Group 2, PLGS-EMPA (2 weeks) followed by AID-EMPA (4 weeks), Group 3, AID-NOEMPA (4 weeks) followed by PLGS-NOEMPA (2 weeks), and Group 4, PLGS-NOEMPA (2 weeks) followed by AID-NOEMPA (4 weeks). Procedures: After confirmation of eligibility, participants underwent study equipment and medication training (experimental arm), or only study equipment training (control arm). Study equipment consisted of Dexcom G6® CGM (Dexcom Inc., San Diego, CA), Contour® Next blood glucose (Ascensia Diabetes Care, Basel, Switzerland) and Precision Xtra® blood ketone meters (Abbott, Alameda, CA) with their respective test strips; infusion sets, and the use of the t:slim X2™ insulin pump with Basal-IQ or Control-IQ technologies (Tandem Diabetes Care, San Diego, CA), according to randomization. […] Participants in the experimental arm were asked to record two days of baseline ketone values before initiating the use of the study drug. Thereafter, participants were directed to use the study CGM with EMPA for 1-2 weeks. A tolerance to the medication was assessed prior to the starting of the next study phase, including adherence to the protocol, ketone testing 2-4 times per day with monitored values not greater than 0.6 mmol/L on at least two successive occasions (the first testing upon waking in a fasted state), no adverse events relating to perineal infection or symptomatic postural hypotension, and no evidence of significant hypoglycemia <54 mg/dL, or any other listed adverse effects of the medication. Participants in the control arm were directed to use the study CGM for 1-2 weeks. Sample Size: The total sample size was projected to be 40 participants, assuming 1) 1:1:1:1 randomization; 2) 90% power and type 1 error a=0.01, further reinforcing the feasibility of hierarchical analyses. The projected recruitment sample was n=50, to accommodate up to 20% attrition rate without sacrificing statistical power. Analytical methods: For the primary analysis, TIR during the day in the 4-week AID period was compared between the two EMPA groups versus the two NOEMPA groups using a linear mixed-effects regression model while adjusting for pre-randomization HbAlc and age. […]", "key": {"[1]": {"conditions": "overall, CIQ-EMPA vs. CIQ-NOEMPA, BIQ-EMPA vs. BIQ-NOEMPA"}, "[2]": {"conditions": "overall, PLGS-EMPA (see Tables 4 and 5)"}, "[3]": {"conditions": "overnight, CIQ-EMPA vs. BIQ-NOEMPA, BIQ-EMPA vs. CIQ-NOEMPA"}, "[4]": {"conditions": "overnight, CIQ-EMPA vs. CIQ-NOEMPA, BIQ-EMPA vs. BIQ-NOEMPA"}, "[5]": {"conditions": "overnight, PLGS-EMPA compared to PLGS-NOEMPA"}}, "data": [{"smiles": "OC[C@H]1O[C@@H](c2ccc(Cl)c(Cc3ccc(O[C@H]4CCOC4)cc3)c2)[C@H](O)[C@@H](O)[C@@H]1O", "note": "[BIQ-EMPA, empagliflozin]", "values": [{"measurement": "Difference: CGM LBGI", "setting": "overall, CIQ-EMPA vs. BIQ-NOEMPA, BIQ-EMPA vs. CIQ-NOEMPA", "result": 0.2}, {"measurement": "Difference: CGM HBGI", "setting": "[1]", "result": "−4.3"}, {"measurement": "Difference: CGM LBGI", "setting": "[1]", "result": 0.1}, {"measurement": "Difference: CGM SD", "setting": "[1]", "result": -14.3, "unit": "mg/dL"}, {"measurement": "decrease in mean glucose overall", "setting": "[2]", "result": 24, "unit": "mg/dL"}, {"measurement": "decrease in percent time in hyperglycemia", "setting": "[2]", "result": 18.6, "unit": "%"}, {"measurement": "% CGM time <70-140 mg/dL (<3.9-7.8 mmol/L)", "setting": "overall, n = 16, mean ± SD", "result": "56.8 ± 16.5", "unit": "%"}, {"measurement": "% CGM time <70-180 mg/dL (<3.9-10.0 mmol/L)", "setting": "overall, n = 16, mean ± SD", "result": "79 ± 15.7", "unit": "%"}, {"measurement": "CGM CV (%)", "setting": "overall, n = 16, mean ± SD", "result": "32.1 ± 3.7", "unit": "%"}, {"measurement": "CGM SD", "setting": "overall, n = 16, mean ± SD", "result": "46 ± 14.6", "unit": "mg/dL"}, {"measurement": "% CGM time <50 mg/dL (<2.8 mmol/L)", "setting": "overall, n = 16", "result": "0(0-0.4) %"}, {"measurement": "% CGM time <60 mg/dL (<3.3 mmol/L)", "setting": "overall, n = 16", "result": "0.5(0.2-0.9) %"}, {"measurement": "% CGM time <70 mg/dL (<3.9 mmol/L)", "setting": "overall, n = 16", "result": "1.7(0.9-2.7) %"}, {"measurement": "% CGM time >180 mg/dL (>10.0 mmol/L)", "setting": "overall, n = 16", "result": "15(6.7-22.7) %"}, {"measurement": "% CGM time >250 mg/dL (>13.9 mmol/L)", "setting": "overall, n = 16", "result": "1.7(0.2-3.6) %"}, {"measurement": "% CGM time >300 mg/dL (>16.7 mmol/L)", "setting": "overall, n = 16", "result": "0.2(0-0.6) %"}, {"measurement": "CGM HBGI", "setting": "overall, n = 16", "result": "3.3(1.8-4.7)"}, {"measurement": "CGM LBGI", "setting": "overall, n = 16", "result": "0.7(0.6-1)"}, {"measurement": "Difference (95% CI): % CGM time <50 mg/dL (<2.8 mmol/L)", "setting": "[3]", "result": "−0.4", "unit": "percentage points"}, {"measurement": "Difference (95% CI): % CGM time >180 mg/dL (>10.0 mmol/L)", "setting": "[3]", "result": "−5.1", "unit": "percentage points"}, {"measurement": "Difference (95% CI): % CGM time >300 mg/dL (>16.7 mmol/L)", "setting": "[3]", "result": "−0.3", "unit": "percentage points"}, {"measurement": "Difference (95% CI): CGM CV (%)", "setting": "[3]", "result": "−3.1", "unit": "%"}, {"measurement": "Difference (95% CI): CGM HBGI", "setting": "[3]", "result": "−1.1"}, {"measurement": "Difference (95% CI): CGM LBGI", "setting": "[3]", "result": 0.3}, {"measurement": "Difference (95% CI): CGM SD", "setting": "[3]", "result": -8.2, "unit": "mg/dL"}, {"measurement": "Difference (95% CI): Mean CGM glucose", "setting": "[3]", "result": -9.8, "unit": "mg/dL"}, {"measurement": "Difference (95% CI): % CGM time >180 mg/dL (>10.0 mmol/L)", "setting": "[4]", "result": "−18.2", "unit": "percentage points"}, {"measurement": "Difference (95% CI): % CGM time >250 mg/dL (>13.9 mmol/L)", "setting": "[4]", "result": "−13.9", "unit": "percentage points"}, {"measurement": "Difference (95% CI): % CGM time >300 mg/dL (>16.7 mmol/L)", "setting": "[4]", "result": "−4.8", "unit": "percentage points"}, {"measurement": "Difference (95% CI): CGM HBGI", "setting": "[4]", "result": "−6.2"}, {"measurement": "Difference (95% CI): CGM LBGI", "setting": "[4]", "result": 0.2}, {"measurement": "Difference (95% CI): CGM SD", "setting": "[4]", "result": -17.2, "unit": "mg/dL"}, {"measurement": "decrease in time in hyperglycemia", "setting": "[5]", "result": 7.6, "unit": "%"}, {"measurement": "increase in percent TIR", "setting": "[5]", "result": 17, "unit": "%"}, {"measurement": "% CGM time 70-140 mg/dL (3.9-7.8 mmol/L)", "setting": "overnight, n = 16, mean ± SD", "result": "54 ± 21", "unit": "%"}, {"measurement": "% CGM time 70-180 mg/dL (3.9-10.0 mmol/L)", "setting": "overnight, n = 16, mean ± SD", "result": "76 ± 21", "unit": "%"}, {"measurement": "CGM CV (%)", "setting": "overnight, n = 16, mean ± SD", "result": "30.5 ± 4.2", "unit": "%"}, {"measurement": "CGM SD", "setting": "overnight, n = 16, mean ± SD", "result": "44.5 ± 14", "unit": "mg/dL"}, {"measurement": "Mean CGM glucose", "setting": "overnight, n = 16, mean ± SD", "result": "145 ± 41", "unit": "mg/dL"}, {"measurement": "% CGM time <50 mg/dL (<2.8 mmol/L)", "setting": "overnight, n = 16", "result": "0(0-0.5) %"}, {"measurement": "% CGM time <60 mg/dL (<3.3 mmol/L)", "setting": "overnight, n = 16", "result": "0.5(0.1-1.1) %"}, {"measurement": "% CGM time <70 mg/dL (<3.9 mmol/L)", "setting": "overnight, n = 16", "result": "1.5(0.4-2.7) %"}, {"measurement": "% CGM time >180 mg/dL (>10.0 mmol/L)", "setting": "overnight, n = 16", "result": "16.2(7-30.8) %"}, {"measurement": "% CGM time >250 mg/dL (>13.9 mmol/L)", "setting": "overnight, n = 16", "result": "0.1(0-2.4) %"}, {"measurement": "% CGM time >300 mg/dL (>16.7 mmol/L)", "setting": "overnight, n = 16", "result": "0(0-0.2) %"}, {"measurement": "CGM HBGI", "setting": "overnight, n = 16", "result": "3.3(2.1-5.2)"}, {"measurement": "CGM LBGI", "setting": "overnight, n = 16", "result": "0.7(0.4-1.4)"}, {"measurement": "night-time in range, h out of 8 h", "setting": "overnight, out of 8 h of the night-time, listed as PLGS-EMPA", "result": 6, "unit": "h"}]}]}
